Legend:
[1] = molecular target: T1, recombinant MAP4K4 enzyme (Homo sapiens, UniProt O95819); assay: MAP4K4 inhibition assay (cell free, MBP substrate, ADP detection); type: biochemical; details: for IC50: recombinant MAP4K4, MBP substrate, 48 μM ATP, compounds titrated from 900 nM, read-out: concentration for 50% inhibition of MAP4K4 (IC50)
T1 construct: purchased BioAssay Systems Services (Hayward, CA)
Procedure: MAP4K4 inhibition assay: MAP4K4 assay for IC50 determination was performed using a kit by BioAssay Systems Services (Hayward, CA). Briefly, MAP4K4 in assay buffer (40 ng in 10 μL) was incubated with varying concentrations of test compounds (5 μL in dimethylsulfoxide) for 15 min at 37° C. The compounds were titrated from 900 nM (final reaction concentration) in 3× steps. Compound dilutions were made in assay buffer with 0.036% dimethylsulfoxide. Reactions were initiated by adding 5 μL reaction mix (2.6 μg/μL MBP, 193 μM ATP; final reaction concentration of 13 μg MBP, 48 μM ATP) and run at 37° C. for 20 min. These kinase reactions were stopped with an ADP detection reagent and fluorescence was measured at 530Ex/590Em. IC50 was computed using GraphPad Prism Nonlinear Sigmoidal Dose-Response fitting.
MAP4K4 inhibition assay: The MAP4K4 inhibitory activity of DMX-5804, Ribose-analog 9, and regio-isomer 7 were examined in a cell free assay using recombinant MAP4K4 enzyme and myelin basic protein (MBP) as its substrate.

[2] = compared with F1386-0303; cited from earlier work
[3] = mouse infarct model; cited from earlier work
cardiomyocyte = details: oxidative stress-induced, in vitro and in vivo; cited from earlier work
[4] = Solubility in aqueous medium; type: physicochemical
Excerpt: In order to shift alkylation to desired phenolic site, we changed reaction conditions to acidic by using boron trifluoride diethyl etherate as a Lewis acid (entries 9-11 of Table 1). […] Hypothesizing that the relatively low separated yields of this reaction are due to the insolubility of phenolic derivative in dichloromethane, we decided to perform this reaction in neat conditions with BF3OEt2. This modification produced satisfactory yields of DMX-5804 (entry 10). Further, we added excess of methylglycol as a solvent as well as a reactant in presence of BF3OEt2 to obtain quantitative yields of DMX-5804 in good time (entry 11). In these acidic conditions, the other regioisomer (pyrimidine alkylated compound 7) was completely absent. Previously, the use of BF3OEt2 for phenolic alkylation has been reported. In addition to the compound DMX-5804, we employed this route for synthesis of ribose- and glucose-conjugated analogs. […]

[5] = Stability on reflux in dioxane-HCl; type: physicochemical; details: refluxed in dioxane-HCl for 6 h
Procedure: (§1) First, we attempted base-catalyzed O-alkylation in a variety of conditions (Table 1). […] We also screened various solvents combined with different bases to get DMX-5804. […] However, DMX-5804 was obtained only in small amounts (5-7%), whereas compound 7 was isolated as the major product (88%). To check the stability of compound 7, we refluxed it in dioxane-HCl for 6 h. […] Also, its HPLC retention time was identical to that of DMX-5804 (data not shown).

[6] = Solubility in polar solvents; type: physicochemical; details: compared with DMX-5804
Procedure: as §1

T1 sequence (O95819 whole entry): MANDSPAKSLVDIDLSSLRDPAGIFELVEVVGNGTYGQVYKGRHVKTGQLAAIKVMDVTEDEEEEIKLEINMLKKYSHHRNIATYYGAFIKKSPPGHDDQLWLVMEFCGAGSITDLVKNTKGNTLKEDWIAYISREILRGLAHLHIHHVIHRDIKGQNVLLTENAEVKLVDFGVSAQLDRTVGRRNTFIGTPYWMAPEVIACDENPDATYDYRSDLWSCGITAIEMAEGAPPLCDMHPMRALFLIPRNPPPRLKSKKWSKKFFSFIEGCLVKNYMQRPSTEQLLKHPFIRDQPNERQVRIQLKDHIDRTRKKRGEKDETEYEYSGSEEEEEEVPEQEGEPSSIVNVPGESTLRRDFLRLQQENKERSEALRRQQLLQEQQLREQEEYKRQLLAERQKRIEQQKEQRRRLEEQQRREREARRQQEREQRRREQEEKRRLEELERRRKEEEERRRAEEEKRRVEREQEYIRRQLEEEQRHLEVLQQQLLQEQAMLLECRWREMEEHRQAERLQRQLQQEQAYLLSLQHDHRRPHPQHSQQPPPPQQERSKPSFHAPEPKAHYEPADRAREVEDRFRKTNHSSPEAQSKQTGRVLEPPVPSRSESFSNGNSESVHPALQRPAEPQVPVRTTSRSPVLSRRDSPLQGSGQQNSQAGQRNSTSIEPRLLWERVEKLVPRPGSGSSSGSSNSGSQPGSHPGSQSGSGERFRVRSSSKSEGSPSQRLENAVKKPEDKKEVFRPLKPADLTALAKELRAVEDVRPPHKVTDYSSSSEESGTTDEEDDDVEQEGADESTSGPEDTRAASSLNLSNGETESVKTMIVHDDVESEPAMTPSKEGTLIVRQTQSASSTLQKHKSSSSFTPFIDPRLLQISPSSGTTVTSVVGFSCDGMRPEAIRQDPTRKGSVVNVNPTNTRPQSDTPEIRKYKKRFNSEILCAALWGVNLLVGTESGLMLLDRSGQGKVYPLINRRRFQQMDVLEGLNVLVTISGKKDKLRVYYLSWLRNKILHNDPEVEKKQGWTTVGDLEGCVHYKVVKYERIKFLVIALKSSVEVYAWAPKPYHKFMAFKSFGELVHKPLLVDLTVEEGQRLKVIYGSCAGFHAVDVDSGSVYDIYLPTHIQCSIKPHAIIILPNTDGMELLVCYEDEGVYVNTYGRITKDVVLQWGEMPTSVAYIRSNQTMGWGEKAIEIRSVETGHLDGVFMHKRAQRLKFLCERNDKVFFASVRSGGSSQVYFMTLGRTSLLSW

| SMILES | IC50 [1] [nM] | bioavailability in vivo [2] | infarct size [3] | cardiomyocyte death (cardiomyocyte) | solubility in aqueous medium [4] | stability in acidic conditions [5] | solubility in polar solvents [6] | MAP4K4 inhibitory activity ([1]; concentration range tested (titrated from 900 nM in 3× steps)) | melting point [°C] |
| --- | --- | --- | --- | --- | --- | --- | --- | --- | --- |
| O=c1[nH]cnc2c1c(-c1ccc(OC3OC(CO)C(O)C3O)cc1)cn2-c1ccccc1 (stereo not shown) [Compound 9, 5-(4-((3,4-dihydroxy-5-(hydroxymethyl)tetrahydrofuran-2-yl)oxy)phenyl)-7-phenyl-3,7-dihydro-4H-pyrrolo[2,3-d]pyrimidin-4-one] | 256 |  |  |  |  |  |  |  |  |
| COCCOc1ccc(-c2cn(-c3ccccc3)c3nc[nH]c(=O)c23)cc1 [DMX-5804, 5-(4-(2-methoxyethoxy)phenyl)-7-phenyl-3,7-dihydro-4H-pyrrolo[2,3-d]pyrimidin-4-one] | 206 | better bioavailability in vivo than F1386-0303 | significant reduction of infarct size | reduces cardiomyocyte death both in vitro and in vivo | virtually insoluble |  |  |  |  |
| COCCOc1ncnc2c1c(-c1ccc(O)cc1)cn2-c1ccccc1 (single isomer, unassigned) [Compound 7, 4-(4-(2-methoxyethoxy)-7-phenyl-7H-pyrrolo[2,3-d]pyrimidin-5-yl)phenol] |  |  |  |  |  | stable in acidic conditions | significantly better than DMX-5804 | no inhibitory activity in the concentration range tested | 221 to 224 |

Reference: US20240279231A1, “MAP4K4 INHIBITORS AND METHODS OF SYNTHESIS AND USE THEREOF” (The Board of Regents of the University of Oklahoma, priority 2021, published 2024)
